# Reference: US20230392126A1, “TISSUE ORGANOIDS” (priority 2016, published 2023)
# Experiments:
# [1] = tested on: mouse epidermal cells; assay: Secretion of GLP1 in cell culture medium by ELISA (mouse epidermal cells); format: cell-based
# [2] = tested on: human epidermal cells; assay: Secretion of GLP1 in culture medium by ELISA (human epidermal cells); format: cell-based; conditions: engineered human epidermal cells, doxycycline
# From the text: To examine CRISPR-mediated genome editing in human epidermal cells, vectors encoding two gRNAs targeting human AAVS1 (adeno-associated virus integration site 1) locus, and an AAVS1-targeting vector (FIG. 16A) that harbors a tetracycline-inducible expression cassette encoding the GLP-1 and IgG-Fc fragment fusion protein were used. […] Clones were isolated and correct integration confirmed by southern blotting analysis (FIG. 13D).
# [3] = tested on: insulinoma cells; assay: Insulin secretion of starved insulinoma cells treated with conditioned medium (ELISA); format: cell-based
# [4] = Obesity induced by high fat diet in grafted mice; format: in vivo, mouse
# From the text: (§1) Male CD-1 mice with skin transplants were housed (5 per cage, ˜8 weeks old) in a central-controlled animal facility for air, humidity and temperature. These mice were fed either a regular chow or an HFD (60% kcal from fats, 20% from carbohydrates, and 20% from proteins) purchased from Bio-Serv (Frenchtown, NJ). Body weight and food intake were measure biweekly.
# To examine the potential applicability in diet-induced obesity and diabetes, GLP1/GGBP-expressing cells and control cells (GGBP alone) were transplanted into two cohorts of CD1 adult male mice. The mice were fed a high fat diet (HFD) to induce obesity in grafted animals. Compared with animals on a regular chow diet, the HFD greatly accelerated body weight gain in mice grafted with control cells.
# as §1, with “mice” for “mice with skin transplants”, “humidity,” for “humidity”
# To examine the potential effect in diet-induced obesity and diabetes, GLP1-expressing cells and control cells were grafted onto two cohorts of CD1 adult mice, and a high fat diet (HFD) was used to induce obesity in the grafted animals. Doxycycline was applied to half of the animals to induce expression of GLP1. To minimize gender difference, only male animals were used. Compared with animals on regular chow diet, HFD greatly accelerated body weight gain in mice grafted with control cells or GLP1 cells without doxycycline treatment.
# [5] = Intraperitoneal insulin tolerance test (ITT) in grafted mice; format: in vivo, mouse; conditions: vs control mice or GLP1 mice without doxycycline
# Method: For glucose and insulin tolerance tests, an intraperitoneal glucose tolerance test (IPGTT) was performed on mice fed an HFD for 10 weeks. Mice were fasted for 6 h before the test. Animals were injected (1 g/kg glucose/body weight, i.p.) with glucose dissolved in saline, and blood glucose was measured at 0, 30, 60 and 90 min using glucose test strips and glucose meters. An intraperitoneal insulin tolerance test was carried out 1 week after IPGTT. Mice were fasted for 4 h and injected (2 U/kg, i.p.) with insulin purchased from Sigma (St. Louis, MO). Blood glucose levels were determined thereafter at 0, 30, 60 and 90 min.
# To examine glucose homeostasis, IPGTT (intraperitoneal glucose tolerance test) and ITT (insulin tolerance test) were performed.
# [6] = GLP1 level in blood by ELISA, CD1 mice grafted with mouse skin organoids; format: in vivo
# Method: To investigate the potential therapeutic effect of GLP1 in vivo, skin organoid cultures with epidermal keratinocytes targeted with a GLP1-expression vector or a control vector, and transplant the organoids to CD1 host animals (FIGS. 11A and 11B-C) were prepared. […] Expression of GLP1 in grafted animals was stable for more than 3 months (FIG. 11K).
# [7] = GLP1 level in blood by ELISA, nude mice grafted with human skin organoids; format: in vivo, mouse; conditions: human GLP1-expressing grafts, doxycycline food
# From the text: The engineered cells stratified and formed skin organoids in vitro, which were transplanted to nude hosts (FIG. 13G-H).
substance,measurement,setting,value
GLP1,GLP1 production and secretion,"[1]; GLP1/GGBP expression cassette, constitutive",robust GLP1 production and secretion
same,GLP1 production,"[1]; tetracycline-inducible cassette, doxycycline stimulation",robust GLP1 production upon stimulation with doxycycline in a dose-dependent manner
same,GLP1 production,[2],strong GLP1 production upon dose-dependent stimulation with doxycycline
same,insulin secretion induced by conditioned medium,[3]; conditioned medium from mouse epidermal cells,significantly induce secretion of insulin
same,insulin secretion induced by secreted GLP1 fusion protein,[3]; from human epidermal cells,induced insulin secretion in vitro
same,body weight increase,"[4]; HFD, GLP1/GGBP-expressing grafts vs GGBP alone, CD1 male mice",significant inhibition in body weight increase
same,body weight,"[4]; HFD, doxycycline-induced GLP1 expression, CD1 male mice",significant decrease in body weight
same,HFD-induced adipocyte hypertrophy in white fat tissue,[4]; doxycycline-induced GLP1 expression,dramatically suppressed this effect
same,insulin resistance,[5],significantly reduced insulin resistance
same,level of GLP1 in the blood,[6]; food containing doxycycline,significantly enhanced level of GLP1 in the blood
same,duration of stable GLP1 expression in grafted animals,"[6]; mouse, in vivo",more than 3 months
same,GLP1 in the blood,[7],significant secretion of GLP1 was detected in the blood
